The source of these data is ChEMBL document CHEMBL3507680, “University of Dundee, Gates Library screen for HepG2 cell viability”.

The structures appear in SMILES notation.

This data set in a line: Human HepG2 cell viability assay in 384 well format. Format: toxicity, cell-based. Details: dose 125 nL, time 70.5 hour; cytotoxicity at 70.5 h: concentration not given beside the values. The conditions noted are these: HepG2 cells, read-out: Inhibition.
With `CCc1cnc(CN(C(C)=O)C2CCN(Cc3nccn3C)C2)o1` (centres undefined), the cytotoxicity at 70.5 h was determined as 1.08%.
To `Cn1ccnc1C(=O)N1CCOC(Cc2ccc(Cl)cc2)C1` (centres undefined) belongs -8.65%.
Regarding `c1ccc(CN2C[C@H]3CCC[C@@]3(COCC3CC3)C2)nc1`, the cytotoxicity at 70.5 h is -0.925%.
Regarding `Cn1ccnc1CN1CCC2(CC1)CN(Cc1cccnc1)C(=O)CO2`, the cytotoxicity at 70.5 h was -5.54%.
In the case of `Cc1nc2c(Nc3cccc(C#N)c3)nc(N)nc2n1C`, the cytotoxicity at 70.5 h was 4%.
For the molecule `C[S+]([O-])CCNC(=O)Nc1cc(F)ccc1-n1cccn1` (centres undefined), the cytotoxicity at 70.5 h was determined as 15.9%.
The figure for `Cn1cc(S(=O)(=O)N2CCN(S(=O)(=O)c3ccc(Br)s3)CC2)cn1` is -8.9%.
To `CN(CCC#N)C(=O)Cc1csc(-c2ncccn2)n1` belongs -3.29%; to `CNS(=O)(=O)c1ccc(CNC(=O)NCC2CCCO2)cc1` (centres undefined), -20.2%; to `COc1cc(Cl)ccc1C(=O)N1CCCC(c2cc(C)[nH]n2)C1` (centres undefined), 36.1%.
Regarding `Cn1cc(-c2nnn3c2COC(CNCc2cccnc2)C3)cn1` (centres undefined), the cytotoxicity at 70.5 h worked out at 18.5%.
To `Cc1cc(NC2CCN(c3ccc(F)cc3)CC2)n2nc(C)cc2n1` belongs -1.64%; to `COCCn1ccnc1C1CCN(C(=O)c2cccc(COC)n2)CC1`, -4.2%.
Take `COC(=O)c1ccc(N2CCN(C(=O)C3CC3)C(C)C2)cc1` (centres undefined): the cytotoxicity at 70.5 h was -5.06%.
To `CCCC(C)CS(=O)(=O)NCCc1csc(N2CCCC2)n1` (centres undefined) belongs -2.73%; to `CN(Cc1ccco1)[C@@H]1CN(CC2CCOCC2)C[C@@H]2CCCO[C@@H]21`, 4.38%; to `Cc1nc(C2(NCC(=O)NC(=O)NCC(F)(F)F)CCCCC2)no1`, 13.9%.
The figure for `CC(C)C[C@@H](N)C(=O)N(C)Cc1csc(C(C)C)n1` is 2.05%.
To `CCOC[C@@H]1CC[C@H]2[C@H](CCN2C(=O)c2cnccn2)O1` belongs 2.78%; to `Cc1nc(S(=O)(=O)N2CCSC3(CCCCC3)C2)cn1C`, -4%; to `Cc1nnc(Nc2cccc(C3CCN(Cc4ncc[nH]4)CC3)n2)s1`, 18.8%.
Turning to `CCOCCn1nc(C)cc1C(=O)N1C[C@@H](C)[C@](O)(C2CC2)C1`, the cytotoxicity at 70.5 h is -2.07%.
The figure for `CCn1ccc(-c2cc(C(=O)O)n3ncc(Cl)c3n2)n1` is -10.2%.
Take `Cc1cccc(OC2CCN(C(=O)NCCn3ccnc3)CC2)c1C`: the cytotoxicity at 70.5 h is -3.44%.
To `CN(C)C(=O)CCCS(=O)(=O)Cc1cc(Cl)c2c(c1)OCCO2` belongs -4.96%.
Regarding `Cc1nc(CNCC2CCCN2c2cccnn2)no1` (centres undefined), the cytotoxicity at 70.5 h was -1.22%.
For `COc1ccc(F)c(-c2cc(O)nc(N)n2)c1`, the cytotoxicity at 70.5 h is -9.12%.
`c1cnn(CC2CCN(c3nc(C4CC4)nc4c3CCNCC4)CC2)c1`: the cytotoxicity at 70.5 h is -0.96%.
To `CC(Oc1ccccc1C#N)C(=O)NC1CC1` (centres undefined) belongs -8.65%; to `CN(CC1COc2ccccc2O1)C(=O)c1ccc(-c2cn[nH]c2)nc1` (centres undefined), -2.63%.
In the case of `CCN1CCN(C(=O)c2csnn2)c2ccccc21`, the cytotoxicity at 70.5 h was found to be 9.42%.
The figure for `COc1ccc2cc(C(=O)N3CCCCC3CC(N)=O)[nH]c2c1` (centres undefined) is -15.1%.
For `CC(C)(C)c1coc([C@@H]2COCCN2Cc2csnn2)n1`, the cytotoxicity at 70.5 h is -1.66%.
To `COC(=O)NCCCn1ccnc1-c1ccccc1` belongs -6.73%.
To `Cc1cncc(C2CCN(Cc3ccc(S(C)(=O)=O)cc3)CC2)n1` belongs -9.92%; to `COCCOc1ncccc1NCc1nc2ccccc2n1C`, -15.1%; to `COc1ccccc1N1CCN(Cc2nc(C)c(C)o2)CC1`, -8.1%.
The figure for `CCCC(=O)N1CCC(c2ncc3c(n2)CCNC3)CC1` is -5.64%.
On to `Cc1nc(C)n(CC2CCCN2c2ccnc(-c3ccccc3)n2)n1` (centres undefined), for which the cytotoxicity at 70.5 h was -6.3%.
